{"source": "patent US11865126B2", "about": "“Method for treating anxiety disorders, headache disorders, and eating disorders with psilocybin” (priority 2019, dated 2024)", "key": {"[1]": {"system": "CCK-4-treated rats", "test": "Elevated plus maze (EPM) after CCK-4 induced panic anxiety", "type": "in vivo, rat", "protocol": "This example examines the effects of psilocybin on induced panic anxiety. The elevated plus maze (EPM) is a widely used behavioral assay for rodents to assess anti-panic or anti-anxiety effects of pharmacological agents. Briefly, rodents are placed at the junction of the four arms of the maze, facing an open arm, and entries/duration in each arm are recorded over a period of time. An increase in open arm activity reflects anti-anxiety behavior (Walf et al., Nature Protocols, 2007).\nPanic anxiety can be induced in rodents through administration of panicogenic drugs such as cholecystokinin tetrapeptide (CCK-4). Peripheral administration of CCK-4 leads to an anxiogenic-like action in the EPM model of anxiety in rats. The anxiogenic effect of CCK-4 can be antagonized by benzodiazepine (e.g., diazepam) treatment.\nAnimal handling was performed on a daily basis starting 1 week before the EPM assay. CCK-4 was prepared in saline at the dosage volume of 1 mL/kg and was intraperitoneally administered to the rats 30 min before implementation of the EPM test resulting in a CCK-4 dose of 0.2 mg/kg. CCK-4 was administered to all treatment groups except for the vehicle control (saline). Treatment groups for this study are shown below in Table 33. The EPM assay was performed 2 hours, and 24 hours following administration of psilocybin, and 1 hour after administration of diazepam.\nThe apparatus used in the EPM assay was a PVC maze covered with Plexiglas and subdivided into four equal exploratory arms (21×8 cm). All arms were interconnected by a small platform (8×8 cm). The apparatus was placed 59 cm above the floor. Two arms were open and two arms were closed with walls (height: 21 cm).\nAfter the appropriate pre-treatment time, the rat was placed on the platform opposite a closed arm. The number of entries and the time spent in each arm were recorded during a 5 min period. The animal was considered as entered in an arm when it placed four paws in the arm. During the trial, animal handling and the visibility of the operator was minimized as much as possible.\nThe results were analyzed by analysis of variance (ANOVA). Fisher's PLSD was used for pairwise comparisons and p value s 0.05 were considered significant."}, "[2]": {"system": "female Wistar rats", "test": "Binge eating model: chow, chocolate and total food intake"}, "[3]": {"conditions": "0.2 mg/kg i.p., 30 min before EPM"}, "[4]": {"conditions": "positive control, 1 hour after administration"}}}
{"smiles": "CSCC[C@H](NC(=O)[C@@H](N)Cc1c[nH]c2ccccc12)C(=O)N[C@@H](CC(=O)O)C(=O)N[C@@H](Cc1ccccc1)C(N)=O", "note": "[CCK-4, cholecystokinin tetrapeptide]", "values": [{"measurement": "Number of entries into the open arm vs saline alone", "setting": "[1]; [3]", "result": "significantly reduced"}, {"measurement": "Time spent in the open arm vs saline alone", "setting": "[1]; [3]", "result": "significantly reduced"}]}
{"smiles": "CN1C(=O)CN=C(c2ccccc2)c2cc(Cl)ccc21", "note": "[Diazepam, diazepam]", "values": [{"measurement": "Number of entries into the open arms vs CCK-4 alone", "setting": "[1]; [4]", "result": "significant increase"}, {"measurement": "Time spent in the open arms vs CCK-4 alone", "setting": "[1]; [4]", "result": "significant increase"}]}
{"smiles": "C[C@@H](Cc1ccccc1)NC(=O)[C@@H](N)CCCCN", "note": "[LDX, lisdexamfetamine]", "values": [{"measurement": "Chocolate intake during binging session vs vehicle/binge", "setting": "[2]; 0.8 mg/kg daily PO, 1 hour", "result": "significantly reduced chocolate eating"}, {"measurement": "Food intake over a 24 hour period", "setting": "[2]; Day 1, 0.8 mg/kg daily PO", "result": "significantly reduced"}]}
